From patent US8133991B2, “Allergen inactivating agent” (Kao Corporation, priority 2002, dated 2012)

Columns and labels:
[1] = target: T1, Dermatophagoides allergen Derf2 (Dermatophagoides farinae, UniProt Q00855); assay: Derf2 sandwich ELISA of mite extract after treatment with sample; type: biochemical; conditions: 1% sample solution mixed 1:1 with 0.5 mg/mL mite extract, room temperature 2 hours; distilled water control = 1; lower = more inactivation
T1 construct: purchased Torii Pharmaceutical Co., Ltd; host or cells: mite extract (natural allergen extract)
T1 sequence (Q00855 18-146): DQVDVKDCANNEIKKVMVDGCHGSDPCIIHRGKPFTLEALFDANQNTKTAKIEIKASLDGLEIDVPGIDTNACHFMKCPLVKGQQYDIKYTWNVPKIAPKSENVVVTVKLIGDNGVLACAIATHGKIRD
Description: (1) The polysaccharide derivative of the present invention was dissolved in distilled water to prepare 1% solution. Quantity of Dermatophagoides allergen was measured as a typical allergen in the indoor environment by sandwich ELISA using a mouse monoclonal antibody. More specifically, quantity of Dermatophagoides allergen Derf2 was measured by using Derf2 antibody and a labeled antibody manufactured by Asahi Brewery, Ltd.
The allergen inactivation effect is indicated in terms of the ratio in relation to the control wherein the sample was treated in the same way except for the use of distilled water, namely, by assuming the Derf2 quantity in the control as 1.
(2) Scratch extract “mite” (manufactured by Torii Pharmaceutical Co., Ltd.) was placed in a dialysis tube, and dialyzed overnight in 10% PBS (4° C.) to remove glycerol in the extract. […] Quantity of Derf2 in the reaction solution was determined by using anti-Derf2 monoclonal antibody (15E11) and HRP-labeled anti-Derf2 monoclonal antibody (13A4) manufactured by Asahi Brewery, Ltd. in accordance with the protocol attached with the product, and using Derf2 for the Derf2 antigen for depicting the calibration curve.
Quantity of the Derf2 treated with various samples was calculated in relation to the quantity of Derf2 treated with the distilled water, which was assumed to be 1.

Cat epithelium = assay: Quidel Allergen Screen: reactivity of immobilized allergen with allergy patient IgE; type: biochemical; conditions: 1% sample, 100 μL/stick, room temperature 2 hours; distilled water control = 0
Text: (§1) Quidel Allergen Screen (manufactured by Xenith Biomed) which is a reagent for detecting antigen-specific IgE antibody by using enzyme-labeled anti-IgE antibody was used to measure the reactivity between the allergen (house dust, Dermatophagoides farinae, Dermatophagoides pteronyssinus, cat epidermis, Cryptomeria japonica, ragweed, and the like) immobilized on a dip stick and the IgE antibody from the allergy patient by the procedure as described below.
(§2) The allergen stick was placed in a wetting box with the pad side facing upward, and the stick was impregnated with the product of the present invention adjusted to 1% at an amount of 100 μL/stick and left at room temperature for 2 hours. Each pad was washed evenly for 30 seconds with physiological saline in a washing bottle, and 50 μL/stick of the serum collected from an allergy patient was added dropwise to the pad and the serum was evenly spread. The wetting box was covered with lid and allowed to stand for 18 hours at room temperature. After the completion of the reaction, the pad was washed evenly for 20 seconds by the physiological saline in a washing bottle.
(§3) About 1 mL of enzyme-labeled anti-IgE antibody was placed in a test tube, and allergen stick is placed in the test tube with the pad facing downward after washing the allergen stick and shaking off the excess water, and the reaction was allowed to take place at room temperature for 30 minutes. After the termination of the reaction, each pad was evenly washed with tap water for 2 minutes. At this occasion, disappearance of the red color on the pad was confirmed. About 1 mL of the substrate solution was poured into test tube, and allergen stick was placed in the test tube with the pad facing downward after washing the allergen stick and shaking off the excess water, and the reaction was allowed to take place at room temperature for 30 minutes. After the completion of the reaction, reaction was terminated by absorbing the water impregnated in the pad with a paper towel by gently patting the pad with the paper towel from the rear side of the pad. Next, intensity of the blue color developed was measured with an image analyzer, and decrease in the reactivity by the product of the present invention was calculated by the following equation by using the color intensity attained when the IgE from allergy patient was used with distilled water treatment for the control.
(§4) Allergen inactivation effect (%)=100−{(IgE reaction intensity when treated by the product of the present invention)−(reaction intensity of the negative control)}/{(IgE reaction intensity of the control treated by distilled water)−(reaction intensity of the negative control)×100

Dermatophagoides farinae = assay: as above; type: biochemical; conditions: 1% sample, 100 μL/stick, room temperature 2 hours; distilled water control = 0
Text: as §1, §2, §3, §4

[2] = test system: Dermatophagoides pteronyssinus; assay: as above; type: biochemical; conditions: 1% sample, 100 μL/stick, room temperature 2 hours; distilled water control = 0
Text: as §1, §2, §3, §4

House dust 1 = assay: as above; type: biochemical; conditions: 1% sample, 100 μL/stick, room temperature 2 hours; distilled water control = 0
Text: as §1, §2, §3, §4

Ceder = assay: as above; type: biochemical, Cryptomeria japonica; conditions: 1% sample, 100 μL/stick, room temperature 2 hours; distilled water control = 0
Text: as §1
The allergen stick was placed in a wetting box with the pad side facing upward, and the stick was impregnated with the product of the present invention adjusted to 1% at an amount of 100 μL/stick and left at room temperature for 2 hours. […]
About 1 mL of enzyme-labeled anti-IgE antibody was placed in a test tube, and allergen stick is placed in the test tube with the pad facing downward after washing the allergen stick and shaking off the excess water, and the reaction was allowed to take place at room temperature for 30 minutes. […] Next, intensity of the blue color developed was measured with an image analyzer, and decrease in the reactivity by the product of the present invention was calculated by the following equation by using the color intensity attained when the IgE from allergy patient was used with distilled water treatment for the control. […]

## O=C(OC[C@H]1O[C@@H](OC(=O)c2cc(O)c(O)c(OC(=O)c3cc(O)c(O)c(O)c3)c2)[C@H](OC(=O)c2cc(O)c(O)c(OC(=O)c3cc(O)c(O)c(O)c3)c2)[C@@H](OC(=O)c2cc(O)c(O)c(OC(=O)c3cc(O)c(O)c(O)c3)c2)[C@@H]1OC(=O)c1cc(O)c(O)c(OC(=O)c2cc(O)c(O)c(O)c2)c1)c1cc(O)c(O)c(OC(=O)c2cc(O)c(O)c(O)c2)c1 [Tannic acid]
[1]
  Quantity of Derf2 (Ratio to the control): 0.2
Cat epithelium
  Allergen inactivating effect (%) <Animal allergen> Cat epithelium: 92%
Dermatophagoides farinae
  Allergen inactivating effect (%) <Animal allergen> Dermatophagoides farinae: 62%
[2]
  Allergen inactivating effect (%) <Animal allergen> Dermatophagoides pteronyssinus: 70%
House dust 1
  Allergen inactivating effect (%) <Animal allergen> House dust 1: 83%
Ceder
  Allergen inactivating effect (%) <Plant allergen> Ceder: 78%
